Experimental data published in article PMC6688997 (Nature Communications, 2019).
Where two headings read alike, the source gives them in different places.

What was measured:
Ba/F3-ETV6-NTRK3 cells = experiment: CellTiter-Glo cell viability assay; format: cell-based, murine; settings: Mus musculus; source data sheet
Procedure: (§2) All media were supplemented with 100 U/ml penicillin, and 100 µg/ml streptomycin. All cells were routinely tested and verified to be free of mycoplasma contamination. […] To assess cell viability after 72-h drug treatment, 2000–5000 cells were plated in replicates of three to six in 96-well plates. Following the drug treatments, the cells were incubated with CellTiter-Glo assay reagent (Promega, Madison, WI, USA) for 10 min. […] IC50 values were determined using a nonlinear regression model with a sigmoidal dose response in GraphPad.

CDC2/CycB1 = CDC2/CycB1 (Homo sapiens, UniProt P06493); experiment: Kinase assay, ATP Km; format: biochemical
TNIK = target: T1, TNIK (Homo sapiens, UniProt Q9UKE5); experiment: Kinase assay, ATP Km; format: biochemical
T1 construct: purchased Carna Biosciences

SLK = target: T2, SLK (Homo sapiens, UniProt Q9H2G2); experiment: Kinase assay, ATP Km; format: biochemical
T2 construct: purchased Carna Biosciences

[1] = system: Ba/F3 TPM3-NTRK1 G595L cells; experiment: CellTiter-Glo cell viability assay; format: cell-based, murine; settings: Mus musculus, BaF3, 72 h
PKD2 = target: T3, PKD2 (Homo sapiens, UniProt Q9BZL6); experiment: Kinase assay, ATP Km; format: biochemical
T3 construct: purchased Carna Biosciences

JAK1 = target: T4, JAK1 (Homo sapiens, UniProt P23458); experiment: Kinase assay, ATP Km; format: biochemical
T4 construct: purchased Carna Biosciences

CK2α2/β = CK2α2/β (Homo sapiens, UniProt P19784); experiment: Kinase assay, ATP Km; format: biochemical
Haspin = target: T5, Haspin (Homo sapiens, UniProt Q8TF76); experiment: Kinase assay, ATP Km; format: biochemical
T5 construct: purchased Carna Biosciences

Ba/F3-ETV6-NTRK2 cells = experiment: CellTiter-Glo cell viability assay; format: cell-based, murine; settings: Mus musculus; source data sheet
Procedure: as §2

LTK = target: T6, LTK (Homo sapiens, UniProt P29376); experiment: Kinase assay, 1 mM ATP; format: biochemical
T6 construct: purchased Carna Biosciences, Inc. (Kobe, Japan); assay run by the vendor
T6 sequence (P29376 17-864): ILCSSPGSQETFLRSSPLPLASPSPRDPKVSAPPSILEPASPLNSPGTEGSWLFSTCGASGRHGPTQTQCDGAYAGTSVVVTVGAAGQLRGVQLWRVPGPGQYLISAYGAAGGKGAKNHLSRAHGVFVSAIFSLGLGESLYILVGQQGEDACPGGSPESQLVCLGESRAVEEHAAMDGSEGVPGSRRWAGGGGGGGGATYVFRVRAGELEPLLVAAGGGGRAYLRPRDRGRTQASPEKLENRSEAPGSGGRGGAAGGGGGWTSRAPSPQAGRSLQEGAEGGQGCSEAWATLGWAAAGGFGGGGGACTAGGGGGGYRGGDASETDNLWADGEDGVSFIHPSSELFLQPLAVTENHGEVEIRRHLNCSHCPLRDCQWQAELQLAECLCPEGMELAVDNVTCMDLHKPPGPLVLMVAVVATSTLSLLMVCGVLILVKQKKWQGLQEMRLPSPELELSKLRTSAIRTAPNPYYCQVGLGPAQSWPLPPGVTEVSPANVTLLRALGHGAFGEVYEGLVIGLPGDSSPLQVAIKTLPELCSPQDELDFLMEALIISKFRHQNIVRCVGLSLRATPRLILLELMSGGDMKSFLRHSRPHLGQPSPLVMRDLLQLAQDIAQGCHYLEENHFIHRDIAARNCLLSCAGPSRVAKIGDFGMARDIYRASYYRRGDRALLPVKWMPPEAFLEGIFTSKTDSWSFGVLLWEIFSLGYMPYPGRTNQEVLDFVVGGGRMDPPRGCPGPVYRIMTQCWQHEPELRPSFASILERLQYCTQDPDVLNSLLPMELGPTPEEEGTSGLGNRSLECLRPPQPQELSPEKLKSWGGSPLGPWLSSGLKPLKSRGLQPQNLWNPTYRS

PLK2 = target: T7, PLK2 (Homo sapiens, UniProt Q9NYY3); experiment: Kinase assay, ATP Km; format: biochemical
T7 construct: purchased Carna Biosciences
T7 sequence (Q9NYY3 whole entry): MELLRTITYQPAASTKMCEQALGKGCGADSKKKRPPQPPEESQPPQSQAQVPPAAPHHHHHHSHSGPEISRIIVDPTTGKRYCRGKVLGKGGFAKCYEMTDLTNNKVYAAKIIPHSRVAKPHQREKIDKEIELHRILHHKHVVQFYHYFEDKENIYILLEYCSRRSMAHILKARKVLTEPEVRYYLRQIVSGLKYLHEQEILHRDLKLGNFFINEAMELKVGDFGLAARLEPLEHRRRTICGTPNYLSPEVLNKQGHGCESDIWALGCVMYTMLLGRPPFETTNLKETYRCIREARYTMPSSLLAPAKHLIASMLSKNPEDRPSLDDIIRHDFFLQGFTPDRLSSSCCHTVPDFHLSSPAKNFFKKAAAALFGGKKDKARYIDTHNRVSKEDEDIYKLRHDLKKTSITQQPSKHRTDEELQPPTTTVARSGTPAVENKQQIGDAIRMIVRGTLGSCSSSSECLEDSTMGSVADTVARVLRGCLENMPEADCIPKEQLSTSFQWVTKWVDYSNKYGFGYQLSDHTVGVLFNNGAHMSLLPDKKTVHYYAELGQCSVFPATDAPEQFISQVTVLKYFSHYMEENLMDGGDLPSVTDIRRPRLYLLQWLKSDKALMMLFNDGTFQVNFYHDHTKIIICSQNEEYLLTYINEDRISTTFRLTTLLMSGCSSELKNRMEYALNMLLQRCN

MSK1 = MSK1 (Homo sapiens, UniProt O75582); experiment: Kinase assay, ATP Km; format: biochemical
PDHK4 = target: T8, PDHK4 (Homo sapiens, UniProt Q16654); experiment: Kinase assay, ATP Km; format: biochemical
T8 construct: purchased Carna Biosciences
T8 sequence (Q16654 whole entry): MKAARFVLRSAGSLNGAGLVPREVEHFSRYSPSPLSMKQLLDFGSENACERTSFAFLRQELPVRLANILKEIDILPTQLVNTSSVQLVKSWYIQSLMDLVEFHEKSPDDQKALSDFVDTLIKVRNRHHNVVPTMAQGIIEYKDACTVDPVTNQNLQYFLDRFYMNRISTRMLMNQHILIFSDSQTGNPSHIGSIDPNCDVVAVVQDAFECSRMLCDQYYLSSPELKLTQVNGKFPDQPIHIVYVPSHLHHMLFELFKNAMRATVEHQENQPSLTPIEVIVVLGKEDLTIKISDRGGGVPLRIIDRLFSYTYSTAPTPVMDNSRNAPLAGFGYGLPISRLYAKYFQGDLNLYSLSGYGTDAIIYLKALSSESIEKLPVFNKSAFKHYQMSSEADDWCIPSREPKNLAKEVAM

EPHB2 = EPHB2 (Homo sapiens, UniProt P29323); experiment: Kinase assay, 1 mM ATP; format: biochemical
Summary of the method: (§1)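 Off-chip mobility shift format; IC50 from 4-parameter logistic fit.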

INSR = target: T9, INSR (Homo sapiens, UniProt P06213); experiment: Kinase assay, 1 mM ATP; format: biochemical
T9 construct: purchased Carna Biosciences
Summary of the method: as §1

HER2 = HER2 (Homo sapiens, UniProt P04626); experiment: Kinase assay, 1 mM ATP; format: biochemical
Summary of the method: as §1

ABL = ABL (Homo sapiens, UniProt P00519); experiment: Kinase assay, 1 mM ATP; format: biochemical
Summary of the method: as §1

RET(G691S) = target: T10, RET(G691S) (Homo sapiens, UniProt P07949, G691S); experiment: Kinase assay, 1 mM ATP; format: biochemical
T10 construct: purchased Carna Biosciences
Summary of the method: as §1

AKT1 = AKT1 (Homo sapiens, UniProt P31749); experiment: Kinase assay, 1 mM ATP; format: biochemical
Summary of the method: as §1

LCK = LCK (Homo sapiens, UniProt P06239); experiment: Kinase assay, 1 mM ATP; format: biochemical
Summary of the method: as §1

PDGFRβ = target: T11, PDGFRβ (Homo sapiens, UniProt P09619); experiment: Kinase assay, 1 mM ATP; format: biochemical
T11 construct: purchased Carna Biosciences
Summary of the method: as §1

p38γ = p38γ (Homo sapiens, UniProt P53778); experiment: Kinase assay, 1 mM ATP; format: biochemical
Summary of the method: as §1

p38α = p38α (Homo sapiens, UniProt Q16539); experiment: Kinase assay, 1 mM ATP; format: biochemical
Summary of the method: as §1

AurC = target: T12, AurC (Homo sapiens, UniProt Q9UQB9); experiment: Kinase assay, 1 mM ATP; format: biochemical
T12 construct: purchased Carna Biosciences
T12 sequence (Q9UQB9 whole entry): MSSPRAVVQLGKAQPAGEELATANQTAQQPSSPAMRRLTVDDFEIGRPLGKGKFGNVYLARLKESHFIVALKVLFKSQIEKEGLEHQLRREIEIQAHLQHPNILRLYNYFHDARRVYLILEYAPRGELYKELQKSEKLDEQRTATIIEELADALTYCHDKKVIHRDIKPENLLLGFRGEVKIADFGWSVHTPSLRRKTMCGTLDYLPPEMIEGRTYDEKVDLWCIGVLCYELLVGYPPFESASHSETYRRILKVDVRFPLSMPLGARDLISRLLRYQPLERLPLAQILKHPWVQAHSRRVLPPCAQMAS
Summary of the method: as §1

CDC7/ASK = target: T13, CDC7/ASK (Homo sapiens, UniProt O00311); experiment: Kinase assay, 1 mM ATP; format: biochemical
T13 construct: purchased Carna Biosciences
Summary of the method: as §1

QIK [2] = target: T14, QIK (Homo sapiens, UniProt Q9H0K1); experiment: Kinase assay, 1 mM ATP; format: biochemical
T14 sequence (Q9H0K1 whole entry): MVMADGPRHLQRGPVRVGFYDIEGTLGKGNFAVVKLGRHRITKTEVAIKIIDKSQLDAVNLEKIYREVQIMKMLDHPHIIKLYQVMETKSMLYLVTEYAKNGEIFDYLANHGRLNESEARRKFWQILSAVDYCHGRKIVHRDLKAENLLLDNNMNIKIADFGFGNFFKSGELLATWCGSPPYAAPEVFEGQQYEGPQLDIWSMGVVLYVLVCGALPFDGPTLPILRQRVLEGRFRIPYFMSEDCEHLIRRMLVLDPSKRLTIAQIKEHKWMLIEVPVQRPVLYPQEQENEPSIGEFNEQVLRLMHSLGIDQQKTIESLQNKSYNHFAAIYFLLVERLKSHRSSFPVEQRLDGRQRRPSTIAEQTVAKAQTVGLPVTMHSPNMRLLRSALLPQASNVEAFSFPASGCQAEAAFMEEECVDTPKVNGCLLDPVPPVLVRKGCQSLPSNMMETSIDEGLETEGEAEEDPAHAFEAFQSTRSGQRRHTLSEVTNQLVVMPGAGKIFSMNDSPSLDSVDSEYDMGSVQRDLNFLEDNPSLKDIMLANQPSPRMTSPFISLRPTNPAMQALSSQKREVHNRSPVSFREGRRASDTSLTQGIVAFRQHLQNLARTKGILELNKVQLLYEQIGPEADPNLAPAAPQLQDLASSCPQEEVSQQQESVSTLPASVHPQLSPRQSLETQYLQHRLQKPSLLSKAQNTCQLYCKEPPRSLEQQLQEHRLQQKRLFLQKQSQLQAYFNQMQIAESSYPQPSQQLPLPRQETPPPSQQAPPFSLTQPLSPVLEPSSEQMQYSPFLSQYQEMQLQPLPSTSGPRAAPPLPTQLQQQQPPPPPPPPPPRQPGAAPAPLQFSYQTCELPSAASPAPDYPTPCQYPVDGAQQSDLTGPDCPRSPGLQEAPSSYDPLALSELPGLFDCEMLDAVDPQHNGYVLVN
Summary of the method: as §1

MRCKα = target: T15, MRCKα (Homo sapiens, UniProt Q5VT25); experiment: Kinase assay, ATP Km; format: biochemical
T15 construct: purchased Carna Biosciences

[3] = Phase I study, plasma concentration; format: in vivo, human; settings: by conversion
PKACα = PKACα (Homo sapiens, UniProt P17612); experiment: Kinase assay, ATP Km; format: biochemical
TRKC (NTRK3) = target: T16, TRKC (NTRK3) (Homo sapiens, UniProt Q16288); experiment: Kinase assay, ATP Km; format: biochemical; settings: for IC50: ATP: Km
T16 construct: purchased Carna Biosciences, Inc. (Kobe, Japan); assay run by the vendor
T16 sequence (Q16288 32-839): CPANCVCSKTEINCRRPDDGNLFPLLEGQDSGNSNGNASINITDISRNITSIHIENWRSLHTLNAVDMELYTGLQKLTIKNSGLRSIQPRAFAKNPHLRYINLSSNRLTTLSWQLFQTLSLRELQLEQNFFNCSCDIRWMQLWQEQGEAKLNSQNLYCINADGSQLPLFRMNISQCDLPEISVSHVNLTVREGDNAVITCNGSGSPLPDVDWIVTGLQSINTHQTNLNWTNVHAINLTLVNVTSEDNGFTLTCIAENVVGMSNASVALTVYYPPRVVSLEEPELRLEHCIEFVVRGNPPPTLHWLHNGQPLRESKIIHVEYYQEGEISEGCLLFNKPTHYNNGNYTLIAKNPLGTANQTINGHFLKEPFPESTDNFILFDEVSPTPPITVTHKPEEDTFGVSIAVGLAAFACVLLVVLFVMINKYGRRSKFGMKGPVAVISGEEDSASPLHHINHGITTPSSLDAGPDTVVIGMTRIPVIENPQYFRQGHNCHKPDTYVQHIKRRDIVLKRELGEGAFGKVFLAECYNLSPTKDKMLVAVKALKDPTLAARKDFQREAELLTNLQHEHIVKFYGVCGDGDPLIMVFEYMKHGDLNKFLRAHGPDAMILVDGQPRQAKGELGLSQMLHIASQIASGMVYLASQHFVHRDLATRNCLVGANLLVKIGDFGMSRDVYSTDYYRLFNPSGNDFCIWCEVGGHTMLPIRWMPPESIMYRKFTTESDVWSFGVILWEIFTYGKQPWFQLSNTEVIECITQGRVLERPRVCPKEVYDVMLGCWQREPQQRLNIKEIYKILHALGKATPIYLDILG

PKCβ1 = PKCβ1 (Homo sapiens, UniProt P05771); experiment: Kinase assay, ATP Km; format: biochemical
PYK2 = target: T17, PYK2 (Homo sapiens, UniProt Q14289); experiment: Kinase assay, ATP Km; format: biochemical
T17 construct: purchased Carna Biosciences

FAK = FAK (Homo sapiens, UniProt Q05397); experiment: Kinase assay, 1 mM ATP; format: biochemical
MAPKAPK2 = target: T18, MAPKAPK2 (Homo sapiens, UniProt P49137); experiment: Kinase assay, ATP Km; format: biochemical
T18 construct: purchased Carna Biosciences

LYNa = LYNa (Homo sapiens, UniProt P07948); experiment: Kinase assay, ATP Km; format: biochemical
[4] = system: EML4-ALK G1202R induced Ba/F3 cells; experiment: CellTiter-Glo cell viability assay; format: cell-based, murine; settings: Mus musculus, BaF3, 72 h; read-out: IC50
QIK [5] = target: T14, QIK; experiment: Kinase assay, ATP Km; format: biochemical
KIT = target: T19, KIT (Homo sapiens, UniProt P10721); experiment: Kinase assay, ATP Km; format: biochemical
T19 construct: purchased Carna Biosciences, Inc. (Kobe, Japan); assay run by the vendor
T19 sequence (P10721 26-976): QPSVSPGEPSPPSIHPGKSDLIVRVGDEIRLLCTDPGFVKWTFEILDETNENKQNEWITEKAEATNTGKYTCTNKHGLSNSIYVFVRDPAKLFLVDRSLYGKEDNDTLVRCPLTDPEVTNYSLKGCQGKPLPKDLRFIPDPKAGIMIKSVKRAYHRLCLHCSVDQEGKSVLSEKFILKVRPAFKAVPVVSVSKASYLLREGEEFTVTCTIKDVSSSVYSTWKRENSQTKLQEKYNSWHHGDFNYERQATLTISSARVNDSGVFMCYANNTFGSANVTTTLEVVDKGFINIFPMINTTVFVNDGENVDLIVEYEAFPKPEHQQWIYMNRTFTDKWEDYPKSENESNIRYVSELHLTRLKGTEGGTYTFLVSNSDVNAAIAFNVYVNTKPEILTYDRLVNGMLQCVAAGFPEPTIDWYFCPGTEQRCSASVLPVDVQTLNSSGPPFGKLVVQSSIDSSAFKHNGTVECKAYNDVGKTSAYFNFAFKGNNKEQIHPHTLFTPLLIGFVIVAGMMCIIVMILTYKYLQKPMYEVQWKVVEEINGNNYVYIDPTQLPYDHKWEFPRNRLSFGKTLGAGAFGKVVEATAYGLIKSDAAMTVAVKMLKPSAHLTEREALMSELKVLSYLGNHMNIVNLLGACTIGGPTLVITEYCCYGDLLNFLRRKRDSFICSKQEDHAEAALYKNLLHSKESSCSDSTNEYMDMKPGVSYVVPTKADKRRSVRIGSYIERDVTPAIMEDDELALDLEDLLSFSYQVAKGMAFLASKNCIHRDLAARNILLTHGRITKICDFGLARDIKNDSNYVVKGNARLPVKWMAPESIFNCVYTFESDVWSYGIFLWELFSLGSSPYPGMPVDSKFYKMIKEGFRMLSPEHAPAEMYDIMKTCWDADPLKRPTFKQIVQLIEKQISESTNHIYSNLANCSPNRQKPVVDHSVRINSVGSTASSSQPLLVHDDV

FER = target: T20, FER (Homo sapiens, UniProt P16591); experiment: Kinase assay, ATP Km; format: biochemical
T20 construct: purchased Carna Biosciences

Structure (SMILES): C[C@@H](N)COc1ccc(-c2cnc3ccc(N[C@H](C)c4cccc(F)c4)nn23)cc1.O=C(O)CCCCC(=O)O [DS-6051b]
- GI50 (Ba/F3-ETV6-NTRK3 cells): 7.8 nM
- inhibition at 0.04 µM (CDC2/CycB1): 3.9%
- inhibition at 0.04 µM (TNIK): 16.4%
- inhibition at 0.04 µM (SLK): 41.7%
- IC50 [1]: 29.2 nM
- inhibition at 0.04 µM (PKD2): -6.3%
- inhibition at 0.04 µM (JAK1): 46%
- inhibition at 0.04 µM (CK2α2/β): -0.6%
- inhibition at 0.04 µM (Haspin): 4.3%
- GI50 (Ba/F3-ETV6-NTRK2 cells): 19.1 nM
- % Inhibition (LTK; 0.2μM, 1 mM ATP): almost completely inhibited
- inhibition at 0.2 µM (LTK; 0.2μM, 1 mM ATP): 86.9%
- IC50 (LTK; ATP: 1 mM): 25.4 nM
- inhibition at 0.04 µM (PLK2): -1.5%
- inhibition at 0.04 µM (MSK1): 13.8%
- inhibition at 0.04 µM (PDHK4): 0.3%
- inhibition at 0.2 µM (EPHB2): -1.7%
- inhibition at 0.2 µM (INSR): 9.4%
- inhibition at 0.2 µM (HER2): 8.7%
- inhibition at 0.2 µM (ABL): -1.1%
- inhibition at 0.2 µM (RET(G691S)): -0.256%
- inhibition at 0.2 µM (AKT1): -1.3%
- inhibition at 0.2 µM (LCK): 0.27%
- inhibition at 0.2 µM (PDGFRβ): 3.1%
- inhibition at 0.2 µM (p38γ): 0.224%
- inhibition at 0.2 µM (p38α): -6.7%
- inhibition at 0.2 µM (AurC): -19%
- inhibition at 0.2 µM (CDC7/ASK): 8.5%
- inhibition at 0.2 µM (QIK [2]): -3.9%
- inhibition at 0.04 µM (MRCKα): -0.239%
- Trough concentration unbound to proteins ([3]; 400 mg dosing): 50 nM
- Trough concentration unbound to proteins ([3]; 600 mg dosing): 75 nM
- inhibition at 0.04 µM (PKACα): -6.2%
- inhibition at 0.04 µM (TRKC (NTRK3)): 103%
- IC50 (TRKC (NTRK3)): sub-nanomolar
- IC50 (TRKC (NTRK3); read-out: IC50): 0.98 nM
- inhibition at 0.04 µM (PKCβ1): 16.8%
- inhibition at 0.04 µM (PYK2): 62.7%
- inhibition at 0.2 µM (FAK): 25.1%
- inhibition at 0.04 µM (MAPKAPK2): -10.2%
- inhibition at 0.04 µM (LYNa): 46.3%
- IC50 [4]: 261 nM
- inhibition at 0.04 µM (QIK [5]): 20.2%
- inhibition at 0.04 µM (KIT): 12.5%
- inhibition at 0.04 µM (FER): 79.6%
